Experimental data published in PMC6391964, “Radical‐Mediated Thiol‐Ene Strategy: Photoactivation of Thiol‐Containing Drugs in Cancer Cells” (Angewandte Chemie (International Ed. in English), 2018).
Read-outs that look alike come from different tables or passages of the source.

Experiments:
[1] = tested on: HCT-116 colon carcinoma cells; format: cell-based, human
Method: (§1) T a bl e S4. The parallel artific ial membrane permeability assay (PAM PA). […]
(§2) […] The cel l s were s pl it before reac hi ng confl uence w i t h 0. 05% T ry ps i n-ED TA (G i bco™, The rmo Fisher Scientific).
(§3) C ell v ia bility a ssa y
HC T-116 cells suspended in McCoy’s 5A m edium were plated in 96 -w el l pl at es (200 μ L, 2, 500 cells/well), incubated (37 °C, 5% CO2), and 24 h later treated with various concentrations of compou nds or s ol v ent cont rol (0. 25% D M SO). […] […] Cell viability w as cal cul at ed accordi ng t o t he manufact u rer’ s i ns t ruct i ons (Promeg a).
T a bl e S5. GI50 of the L argazole, L argazole Thiol and Stapled L argazole

[2] = Parallel artificial membrane permeability assay (PAMPA); format: in vitro ADME; settings: PAMPA Evolution, Pion GIT-0 phospholipid mixture, ~50 μM, ~15 h, UV read-out, average of quadruplicates
Method: […] […] The effect i v e permeability, Pe, of each compound was measured at the customer -s peci fi ed pHs i n t he dono r compart ment us i ng l ow-bi ndi ng , l ow UV P ri s ma bu ffer. […] The propri et ary s cav eng er mi mi cs s erum prot ei ns and bl ood ci rcul at i on, t hus creat i ng si nk condi t i ons .
I n t he defaul t p rot oc ol t he a queous s ol ut i ons of s t udi ed com poun ds are p repared by di l ut i ng and thoroughly mixing 3 μL of DMSO stock in 600μL of Prisma HT buffer. Final concentration of org ani c s ol v ent (D M SO) i n aqueous buf fer i s ≤ 0. 5 % (v /v ).
The PAM PA s andw i ch was assembl ed and al l owed to i ncubat e for ~15 ho urs . The s ol ut i ons i n t he don or compart ment w ere un- stirred within du ration of t he ex peri ment . Thus , t he t hi ck nes s of t he aqueous bounda ry l ay er ex pect ed t o be about 1000 μ m. […] Ket oprofen, Verapmi l and P ropan ol ol w ere us ed as […]
[…] […] Act ual pH t he bu ffers w as 7. 40 ± 0. 05.
S t o c k sol u ti ons preparation
The samples were diluted with an organic solvent (DMSO) to prepare stock s ol ut i ons at concent rat i on ~10 mM . […] 40 […]
as §1, §2, §3
HC T-116 cells suspended in McCoy’s 5A m edium were plated in 96 -w el l pl at es (200 μ L, 2, 500 […]

[3] = UV-initiated thiol-ene decaging reaction (HPLC); format: physicochemical; settings: 1-thio-β-D-glucose tetraacetate and DPAP, UV irradiation 365 nm, 15 minutes; HPLC trace
Text: Inspired by this AFCT reaction, we hypothesized that the isobutylene structure could be used as a bridging graft to cage thiol‐containing drugs and allow further controlled activation of anticancer drugs by means of a radical‐mediated thiol‐ene mechanism (Scheme 1). […] Our research began with N‐tert‐butoxycarbonyl‐L‐cysteine methyl ester (N‐Boc‐Cys‐OMe 1), which was protected with 3‐bromo‐2‐bromomethyl‐1‐propene (Table 1 and Supporting Information). The stapled cysteine 2 was then screened under a series of reaction conditions. Firstly, different PIs were tested with the same amounts of thiol source, 1‐thio‐β‐D‐glucose tetraacetate (4AcGlcSH), and 2 under irradiation at 365 nm. […] However, the other PI, 2,2‐dimethoxy‐2‐phenylacetophenone (DPAP) successfully promoted the reaction and released 1. β‐Mercaptoethanol (BME) was also tested as the thiol compound under the same reaction conditions. […] However, when N,N‐dimethylformamide (DMF) was used as solvent, two mixed disulfides resulting from the reaction between the 1‐thioglucose and N‐Boc‐cysteine methyl ester 1′ were observed. […]
The cyclic depsipeptide largazole is a marine natural product, and its derivatives are recognized as promising potential anticancer therapeutics. […] Next, the growth‐inhibitory activity was evaluated with human colon carcinoma cell lines, HCT‐116 (Figure 2 c). […]

HCT-116 cells = assay: Photoactivation of stapled largazole in HCT-116 cells (cell viability); format: cell-based, human; settings: stapled largazole 150 nM premixed with DPAP 1.5 μM, UV 365 nm, 80 W, 15 min, then 48 h, compared with non-irradiation, stapled largazole and largazole thiol groups
Method: (§4) Viability Viability Viability
(§5) DPAP Toxicity DPAP+64W-15min DPAP+80W-15min
(§6) Figu r e S7. The DPAP c onc entration and UV c ondition Sc reening. a) The cytotoxicity of DPAP without UV; b) The cytotoxicity of DPAP with UV, 365 nm, 64W, 15 min; c) The cytotoxicity of DPAP with UV, 365 nm, 80W, […]
(§7) P hotoa ctiv a tion of S ta pled La r g a zole in H C T-116 cells
(§8) Plate Cells Compounds UV CellTiter Blue Detect
(§9) Sch eme S6. The phot oact ivat ion of St apled L argazole in HC T- 116 c ells.
(§10) […] […] […] Aft er a not her 48 h of i ncubat i on, t he cel l v i abil it y w as measured according to the general method a bove.
(§11) H istone D ea cety la se ( H D AC ) Activ ity Assa y ( Fluor om etr ic) Following the measurement of the cell viability, the plates were washed with cold PBS for three t i mes. […]
(§12) (also on this page, place not known: Condition Screening Figure concentration condition Screening. Photoactivation Stapled Largazole HCT-116 Scheme photoactivation Stapled Largazole HCT-116 cells. HCT-116 cells plated in 200 μL medium per well density 2,500 cells/well grown in plates. incubated oC, 5% CO2). After h, cells various (Largazole, Largazole Thiol Stapled Largazole nM, 1.5 μM) solvent control (0.25% DMSO). group irradiated with light W) min. After another of incubation, viability was above. […]

HDAC = assay: Fluorometric HDAC activity assay with HCT-116 cell lysates; format: cell-based, human; settings: UV-irradiated premixed group of stapled largazole and DPAP, relative to control groups and non-irradiation group, Ex/Em 355/460 nm
Method: as §4, §5, §6, §7, §8, §9, §10, §11
as §12, with “min.” for “min. After another of incubation, viability was above.”
(Thermo Sci ent i fi c™). […] Aft er be i ng i ncubat ed fo r an ot her 30 mi n at R T, t he fl uores cence i nt ens i t y w as read at Ex /Em = 35 5 n m / 4 60 nm. […]

| SMILES | GI50 ([1]; 48 h) [nM] | logPe (Avg. logPe) ([2]; donor Prisma HT buffer pH 7.4, acceptor sink buffer pH 7.4, DMSO <0.5%, unstirred) | Papp ([2]; donor Prisma HT buffer pH 7.4, acceptor sink buffer pH 7.4, DMSO <0.5%, unstirred, read-out: Pe, effective permeability (Avg. Pe)) [×10⁻⁶ cm/s] | Avg. %R, membrane retention ([2]; donor pH 7.4, by mass balance) [%] | Conversion in the decaging reaction [3] | Cell viability after photoactivation (HCT-116 cells) | HDAC activity (fluorescence) after photoactivation (HDAC) | GI50 ([1]; HCT-116 cells, 48 h treatment, CellTiter-Blue, read-out: GI50) [nM] |
| --- | --- | --- | --- | --- | --- | --- | --- | --- |
| CC(C)[C@@H]1NC(=O)[C@]2(C)CSC(=N2)c2csc(n2)CNC(=O)C[C@@H](/C=C/CCS)OC1=O [largazole thiol] | 185 | – | – | – | – | – | – | – |
| C=C(CSCC/C=C/[C@@H]1CC(=O)NCc2nc(cs2)C2=N[C@@](C)(CS2)C(=O)N[C@@H](C(C)C)C(=O)O1)CSCC/C=C/[C@@H]1CC(=O)NCc2nc(cs2)C2=N[C@@](C)(CS2)C(=O)N[C@@H](C(C)C)C(=O)O1 [stapled largazole] | – | −5.29 | 5.3 | 10 | Full conversion | significantly lower cell viability | significant decrease of fluorescence | 408 |
| CCCCCCCC(=O)SCC/C=C/[C@@H]1CC(=O)NCc2nc(cs2)C2=N[C@@](C)(CS2)C(=O)N[C@@H](C(C)C)C(=O)O1 [largazole] | 1.43 | – | – | – | – | – | – | – |
